| SMILES | melting point [°C] |
| --- | --- |
| NC(=O)c1cccc(C(F)(F)F)c1F | 96 |
| Oc1c(Br)cc(Br)cc1-c1cc(Br)cc(Br)c1O | 205 |
| Nc1cc(F)c(C(F)(F)F)c(F)c1 | 66 |
| Cc1c(O)c(C)c(CCl)c(C)c1CCl | 135 to 140 |
| O=S(=O)(Cl)c1cc(S(=O)(=O)c2ccccc2)cs1 | 102 |
| CNC(=O)n1cc(F)c(=O)[nH]c1=O | 226 |
| CC(C)(C(=O)O)C(F)(F)F | 70 |
| Cc1cc(C)c(C(=O)O)cc1C | 152 |
| FCc1ccccc1 | -35 |
| CCOC(=O)C(=O)C(C#N)C(=O)OCC (stereo unspecified) | 88 to 90 |
| O=[N+]([O-])c1cnc(NC2=NCCN2)s1 | > 250 |
| CCOc1cc(Oc2ccc(C(F)(F)F)cc2Cl)ccc1[N+](=O)[O-] | 85.3 |
| CCCCCCCOC(=O)CCCC | -46.4 |
| NC(=S)c1cccc(Cl)c1Cl | 121 to 123 |
| FC(F)(F)c1cc(Cl)c2c(Cl)cc(Cl)cc2n1 | 111 to 114 |
| COC(=O)C1C(=O)C(C(=O)OC)C2c3ccccc3C1C(C(=O)OC)C(O)C2C(=O)OC (stereo unspecified) | 92.2 |
| CC(=NO)c1ccco1 | 104 to 105 |
| NS(=O)(=O)c1cc2c(s1)C(O)CCS2=O (stereo unspecified) | 190 |
| OCC1CCCCN1 (stereo unspecified) | 69 |
| O=C(O)C1OC(C(=O)O)C(C(=O)O)C1C(=O)O (stereo unspecified) | 205 to 210 |
| Cc1nn(C)c2ncc(C(N)=O)c(Cl)c12 | 275 |
| O=C(CO)[C@@H](O)[C@@H](O)[C@H](O)[C@H](O)CO | 151 |
| Cc1cccc(N)c1N | 63.5 |
| O=C(O)COc1nc(Cl)c(Cl)cc1Cl | 150 |
| CC(=O)C(C=N)c1ccccc1 (stereo unspecified) | 96 |
| CCCCCCCCCCCCCCCC(=O)CC | 51 |
| CCOC(=O)CC1NCCNC1=O (stereo unspecified) | 102 to 105 |

| SMILES | melting point [°C] |
| --- | --- |
| CC(=O)N[Si](C)(C)C | 41 |
| Cn1cnc(C#N)c1C#N | 85 |
| Oc1ccc(Cl)c(F)c1 | 52 |
| c1cnc(-c2noc(C3CCNCC3)n2)cn1 | 87 to 89 |
| Clc1ccncc1 | -43.5 |
| Oc1cc(Cl)c(Cl)c(Cl)c1Cl | 116 |
| CC(=O)C1CCC2C3CCC4=CC(=O)CCC4(C)C3CCC12C (stereo unspecified) | 128 to 132 |
| Cc1c(C)c(C)c2c(c1C)CC2=O | 160 to 161 |
| CCOC(=O)c1oc(C(=O)OCC)c(O)c1O | 178 to 180 |
| ON=Cc1c[nH]cn1 | 182 |
| CN(C)Cc1ncccc1O | 55 to 60 |
| CCCCCCCCCCOc1ccccc1OCCCCCCCCCC | 39 to 42 |
| O=C(C=NO)Nc1ccccc1 | 175 |
| Clc1cc(Cl)c2oc3c(Cl)c(Cl)ccc3c2c1 | 164 |
| CCOC(=O)c1c(Cl)c(Cl)c(Cl)c(Cl)c1C(=O)O | 94.5 |
| N#Cc1cnc(N2CCCCC2)nc1N | 220 to 222 |
| N#CC1=C(N)Oc2[nH]nc(C(F)(F)F)c2C1c1ccc(Cl)cc1Cl (stereo unspecified) | 199 |
| CCCCNC(=O)OC#CCI | 66 |
| O=C(O)[C@@H](O)CCN1C(=O)c2ccccc2C1=O | 157 to 159 |
| CCCC(O)CCC=CC=CC#CC#CC=CCO (stereo unspecified) | 87 |
| CCOC1Oc2ccc(OS(C)(=O)=O)cc2C1(C)C (stereo unspecified) | 71 |
| CC1(C)OC2COC3(CO)OC(C)(C)OC3C2O1 (stereo unspecified) | 95.5 to 97.5 |
| O=C1c2c(Br)c(Br)c(Br)c(Br)c2C(=O)N1CCN1C(=O)c2c(Br)c(Br)c(Br)c(Br)c2C1=O | 445 |
| Cc1cn(C2CCC(CO)O2)c(=O)[nH]c1=O (stereo unspecified) | 156 |
| O=C(O)Cc1cc(F)ccc1F | 125 |
| CC1OC(O)C(O)C(O)C1O (stereo unspecified) | 144 to 145 |
| CCCCC/C=C\Br | -98 |

| SMILES | melting point [°C] |
| --- | --- |
| O=C(O)c1ccno1 | 143 |
| C=CCCCC(=O)O | -37 |
| CC(N)P(=O)(O)O (racemic) | 283 to 284 |
| O=C(O)C1OC(O)C(O)C(O)C1O (stereo unspecified) | 158 to 162 |
| CCP(CC)CC | -88 |
| CC(C)CCCC(C(=O)O)C1=CCC2(C)C(CCC3C4CCC(O)C4(C)CCC32)C1 (stereo unspecified) | 193 |
| ON=Cc1ccc(Cl)cc1 | 100 to 102 |
| C=C1CCC1 | -135 |
| O=C(NC1CCN(Cc2ccccc2)C1)C(F)(F)F (stereo unspecified) | 71 |
| N#CCc1cccc(Cl)c1Cl | 66 to 69 |
| NCc1ccccn1 | -20 |
| CC1CN2CC(=O)Nc3ccc(Cl)cc3C2(c2ccccc2)O1 (stereo unspecified) | 186 |
| CC(=O)OC1CC[C@@]2(C)C(CC[C@@H]3[C@@H]2CC[C@@]2(C)[C@H]3CC[C@]2(O)CCc2ccccc2)C1 (stereo partly specified) | 137 to 139 |
| O=C(C(F)(F)F)C(F)(F)Cl | -133 |
| O=C(OOC(=O)c1ccc(Cl)cc1Cl)c1ccc(Cl)cc1Cl | 106 |
| CSC(=CC(=C(C#N)C#N)c1ccc(Cl)cc1)SC | 106 to 110 |
| O=C(O)C1CCCN(C(=O)OCc2ccccc2)C1 (stereo unspecified) | 90 to 94 |
| O=C(Nc1ccccc1)C(C(F)(F)F)C(F)(F)F | 165 to 167 |
| c1n[nH]c2c1CSC2 | 132 to 133 |
| CNC[C@H](O)[C@@H](O)[C@H](O)[C@H](O)CO | 128 |
| CC(C)CCCC(C)C1CCC2C3CC(O)C4=CC(=O)CCC4(C)C3CCC12C (stereo unspecified) | 189 to 193 |
| O=C(O)c1cccc(OC(F)(F)F)c1 | 89 |
| BrC(Br)=Cc1ccccc1 | 75 |
| CCC(CCC(C)C1CCC2C3CC=C4CC(O)CCC4(C)C3CCC12C)C(C)C (stereo unspecified) | 147 |
| CCCCCCCCOc1ccc(C=O)cc1OCCCCCCCC | 54 to 56 |
| Nc1cccc(Cn2cncn2)c1 | 88 to 89 |

The next lines start with the values.

| melting point [°C] | SMILES |
| --- | --- |
| 110 | CC(=O)Nc1ccccc1CCNCCc1ccccc1NC(C)=O |
| 179 | N#C/C(=N\Nc1c(Br)cc(Br)cc1Br)c1nc2ccccc2s1 |
| 91.5 | Cc1c(-c2ccccc2)[nH]c2ccccc12 |
| 85 to 87 | O=S(=O)(Cl)c1ccc(-c2ccccc2)s1 |
| 115 | O=S(=O)(Cl)c1ccc(-c2ccccc2)cc1 |
| 128 to 129 | O=C1C=C(NCCc2ccccn2)C(=O)c2ccccc21 |
| 216 to 218 | Nc1ccc(S(=O)(=O)N2CCOCC2)cc1 |
| 125 | O=C(NCCN=Cc1ccccn1)C(=O)NCc1ccccn1 |
| 48.5 | Clc1ccc(CC(=CCN2CCCC2)c2ccccc2)cc1 |
| 234 | Fc1ccc(-c2n[nH]c(=S)n2-n2cccc2)cc1 |
| 76 | CC(=O)CCc1oc2ccc(C)cc2c1-c1ccc(C)o1 |
| 124 | Cc1cccc(N)c1C(=O)O |
| 125 | COC(=O)c1ccc2[nH]ccc2c1 |
| 172 to 173 | Cc1cc(C)c(CC(=O)c2cc3ccccc3o2)c(C)c1 |
| 99 | O=[N+]([O-])c1ccc(I)c(Cl)c1 |
| 226 | Cc1ccc(N2CSc3nnc(-c4ccc([N+](=O)[O-])cc4)n3C2)cc1 |
| 204 to 207 | Cn1c2ccccc2c(=O)c2ccccc21 |
| 95 to 96 | Brc1ccc(-c2cccs2)cc1 |
| 179 | CSc1cc(-c2ccc3ccccc3c2)c2c(=O)n(-c3ccccc3)n(C)c2c1 |
| 157 | O=C(c1ccccc1)c1nn2c(C(F)(F)F)nnc2s1 |
| 124 | Oc1ccc(Br)c2cccnc12 |
| 152 | O=C(c1ccccc1)c1ccsc1C(=O)O |
| 302 | c1ccc2nc(-c3cc(-c4cnc5ccccc5n4)cc(-c4cnc5ccccc5n4)c3)cnc2c1 |
| 128 to 130 | N#Cc1cnccc1/C=C/c1ccccc1 |
| 151 to 153 | CCOC(=O)c1c(SC)nn(S(=O)(=O)c2ccc(C)cc2)c1N |
| 60.5 to 61 | O=[N+]([O-])c1ccccc1/C=C(/Cl)c1ccccn1 |

| melting point [°C] | SMILES |
| --- | --- |
| 77 to 78 | COC(=O)c1ccc([N+](=O)[O-])cc1Cl |
| 57 | CCOC(=O)c1ccc(N=C=S)cc1 |
| 220 | O=C(O)c1ccc(N=C=S)cc1 |
| 53.5 | O=C(Cl)c1ccc(Cl)c([N+](=O)[O-])c1 |
| 253 | O=C(O)c1cc2ccccc2c2ccccc12 |
| 113 | O=C(Cl)c1ccc(-c2ccccc2)cc1 |
| 40 to 41 | O=Cc1ccc(-c2ccco2)s1 |
| 79.8 | Oc1cccc2sccc12 |
| 93 to 94 | Oc1ccc2ccccc2c1CN1CCCCC1 |
| 132 to 135 | Nc1cccc(Oc2ccc(S(=O)(=O)c3ccc(Oc4cccc(N)c4)cc3)cc2)c1 |
| 108 to 109 | Cc1nccc(-c2cccc(N)c2)n1 |
| 200 | COC(=O)C=Cc1ccc([N+](=O)[O-])c(C=CC(=O)OC)c1 |
| 285 | Cn1c(=O)c(C2=NNC(=O)C2=Cc2c(O)ccc3ccccc23)c(O)c2ccccc21 |
| 92 to 95 | O=[N+]([O-])c1ccc(O)cc1F |
| 125 to 128 | Nc1snnc1-c1ccc(C(F)(F)F)cc1 |
| 133 | Cc1ccc([N+](=O)[O-])cc1S(=O)(=O)O |
| 166 to 167 | Cc1nc(-c2cc(C(=O)O)no2)cs1 |
| 165 | O=CC1=Cc2cc(O)ccc2OC1 |
| -2 | COC(=O)c1ccc(C)cc1C |
| 109 | Nc1cc(-c2ccccc2)no1 |
| 118 | Cc1ccc(S(=O)(=O)CC(=O)O)cc1 |
| 155 to 156 | Cc1c(C(=O)O)nnn1-c1cccc(C(F)(F)F)c1 |
| 184 to 187 | c1ccc(P(c2ccccc2)c2ccccc2Oc2ccccc2P(c2ccccc2)c2ccccc2)cc1 |
| 66.8 | CC(=O)C[C@@]1(O)C(=O)c2ccccc2-c2ccccc21 |
| 160 | CCOC(=O)c1c(SC)nn(C(=O)c2ccc(OC)cc2)c1N |

From a melting point compilation (Tetko et al.)
